Assays:
Assay type in all cases: in vivo, rat
[1] = tested on: rats that suffer from superficial second degree foot burn; test: Mechanical hyperalgesia (mechanical withdrawal threshold) in rats with foot burn; settings: for mechanical withdrawal threshold (MWT) in comparison to group III (burn) / mechanical withdrawal threshold (MWT) after 72 hours or 96 hours: superficial second degree foot burn + drug; for mechanical withdrawal threshold (MWT) in comparison to group III (burn): p<0.01; for mechanical withdrawal threshold (MWT) after 72 hours or 96 hours: vs groups I, II, V p>0.05
Excerpt: Male SD rats, 220-250 g, 60 rats were included, which were provided by the Department of Experimental Animals from the Medical College of Nanchang University, and the animals were divided into different groups at random. Group I was the group of sham burn in skin of feet; group II was the group of puerarin injection+first degree or superficial second degree burn in skin of feet; group III was the group of physiological saline+first degree or superficial second degree burn in skin of feet; group IV was the group of sham burn in skin of back; group V was the group of puerarin injection+first degree or superficial second degree burn in skin of back; group VI was the group of physiological saline+first degree or superficial second degree burn in skin of back. Puerarin injection was dissolved in physiological saline and the concentration was 50 mg/mL. vena caudalis injection of 4 mL/kg physiological saline was carried out for the rats in group III and […] 0.5 h before burn, and the injection was carried out once a day until the termination of the test; […], and the injection was carried out once a day until the termination of the test; skin of feet or back of the rats from group I and group IV (the sham burn group) were immersed in warm water of 37° C. for 8 seconds. After the rats were anesthetized by ether, their right posterior feet were immersed in hot water of 70° C. for 5 seconds or 8 seconds, then they were raised in separate cages after burn. The mechanical withdrawal threshold and the thermal withdrawal threshold in their right posterior feet were measured respectively before burn (Oh) and 1, 24, 48, 72, 96, 120, 144 hours after burn (the room temperature was maintained at 22±0.5° C.). BME-403 Von Frey fine thread was used to detect the mechanical withdrawal threshold (MWT). The rats were kept in transparent organic glass box (22×12×22 cm^3), and the bottom of the organic glass box was made of wire netting of 1×1 cm^2. The rats were raised in the laboratory after operations and they were kept in the organic glass box for accommodation for 15 min before the detection. The bending forces were 0.13, 0.20, 0.33, 0.60, 1.30, 3.60, 5.00, 7.30, 9.90, 20.1 g respectively. Each test was performed for ten times from the smallest bending force until the frequency of withdrawal was higher than 5/10, namely 50% reaction threshold (that was the value for inducing five reactions in ten tests). The biggest bending force was 20.1 g and bending forces≧20.1 g were recorded as 20.1 g. The interval between two stimulations was at least more than 15 seconds until the stimulation-induced reactions (such as licking feet and throwing legs) completely disappeared. BME-403 Von Frey fine thread was used to determine the mechanical withdrawal threshold (MWT). The rats were kept in transparent organic glass box (22×12×22 cm^3), and the bottom of the organic glass box was made of wire netting of 1×1 cm^2. The rats were raised in the laboratory after operations and they were kept in the organic glass box for accommodation for 15 minutes before the detection. The bending forces were 0.13, 0.20, 0.33, 0.60, 1.30, 3.60, 5.00, 7.30, 9.90, 20.1 g respectively, and bending forces≧20.1 g were recorded as 20.1 g. […]

P2X3 receptor = test: Immunohistochemistry of P2X3 receptor expression in skin nerve ending of rats with back burn; settings: superficial second degree back burn + puerarin injection i.v. daily for three days; saline+burn 152.63±22.62, sham 118.76±18.48
[2] = tested on: rats that suffer from neuropathic pain (chronic constriction injury of sciatic nerve); test: Mechanical hyperalgesia (mechanical withdrawal threshold, Von Frey) in rats with neuropathic pain (CCI)
Method: Male SD rats, 220-250 g were provided by the Department of Experimental Animals from the Medical College of Nanchang University. The rats were divided into five groups at random and 12 rats were included in each group. Experimental grouping: I (sham); II (puerarin); III (chronic constriction injuries, CCI); IV (CCI+puerarin); V (control); VI (CCI+Indo). The puerarin injection was dissolved in physiological saline and the concentration was 50 mg/mL. […]
Thiopental sodium was used to anesthetize the rats (30 mg/kg, intraperitoneal injection), and the skin in the outer side of right thighs of the rats was cut open under sterile conditions, and blunt dissection was carried out to isolate the sciatic nerves, then the sciatic nerves were slightly ligated with 4-0 chromicized catgut and four ligations were carried out in total, and an interval of about 1 mm was left between two knots. […] The rats were raised in separate cages after the operation, and mechanical withdrawal threshold and thermal withdrawal latency were determined before the operation (0 d) and 1, 3, 5, 7, 9, 11, 14 days after the operations respectively (Time for the determination is set at 10[…]00-14[…]100 everyday, and the room temperature was maintained at 22±0.5° C.). […]

Structure (SMILES)	mechanical withdrawal threshold (MWT) in comparison to group III (burn) [1]	mechanical withdrawal threshold (MWT) after 72 hours or 96 hours [1]	gray scale values (average optical density) of P2X3 immunologically positive nerve ending in the skin (P2X3 receptor)	mechanical withdrawal threshold (MWT) in comparison with group III (CCI) ([2]; CCI rats + puerarin, seven days after ligation, p<0.01)	mechanical withdrawal threshold, difference among sham, puerarin alone and control ([2]; puerarin alone, no CCI, p>0.05)	mechanical withdrawal threshold, comparison among sham, puerarin alone and control ([1]; puerarin alone i.p., no burn, p>0.05)
COc1ccc2c(c1)c(CC(=O)O)c(C)n2C(=O)c1ccc(Cl)cc1 [Indocin, Indometacin]	significantly decreased	almost recovered to normal level				
O=c1c(-c2ccc(O)cc2)coc2c([C@@H]3O[C@H](CO)[C@@H](O)[C@H](O)[C@H]3O)c(O)ccc12 [puerarin]	significantly decreased	almost recovered to normal level	130.42±13.35	significantly increased	not significant	no significant difference
